One data set has as its target T1, 5-HT1A receptor (Rattus norvegicus, UniProt P19327).
T1 construct: Hippocampal homogenates (15 μg/mL) were added to each tube as the 5-HT1A receptor source; from tissue; host or cells: rat hippocampus (male Sprague-Dawley), membrane homogenate
T1 sequence (P19327 1-422): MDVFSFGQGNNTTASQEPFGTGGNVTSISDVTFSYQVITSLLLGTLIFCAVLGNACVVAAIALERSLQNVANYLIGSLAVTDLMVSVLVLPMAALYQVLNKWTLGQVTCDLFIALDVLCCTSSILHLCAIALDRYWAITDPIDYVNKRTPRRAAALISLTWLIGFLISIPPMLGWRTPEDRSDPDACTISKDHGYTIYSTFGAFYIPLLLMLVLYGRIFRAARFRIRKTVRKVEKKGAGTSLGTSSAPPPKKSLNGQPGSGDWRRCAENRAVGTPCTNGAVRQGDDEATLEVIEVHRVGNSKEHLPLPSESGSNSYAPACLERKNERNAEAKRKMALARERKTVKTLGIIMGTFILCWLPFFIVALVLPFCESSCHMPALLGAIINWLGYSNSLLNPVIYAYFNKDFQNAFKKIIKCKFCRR
As to the kind of experiment: Antagonist activity for the 5-HT1A receptor, [35S]GTPγS assay in hippocampal homogenates. The class given is biochemical. To be noted: 8-OH-DPAT 1.4 × 10^−7 M, mean ± SEM; for EC50: antagonistic activity. Here is the method:
Male Sprague–Dawley rats were decapitated, their brains removed, and placed on ice. Hippocampi were dissected and homogenized with a glass homogenizer in 30 vol. ice-cold TED buffer (50 mM Tris-HCl, 1 mM EDTA, 1mM dithiotheritol, pH 7.4). Next, the homogenate was centrifuged at 21,000× g for 30 min at 4 °C. […] The suspension was centrifuged again at 21,000× g for 30 min at 4 °C. The pellet was resuspended in 30 vol. TED buffer (pH 7.4) and the centrifugation step was repeated. The final pellet was suspended in 10 vol 50 mM Tris-HCl (pH 7.4) and stored at −80 °C until use.
Serial dilutions of the compounds tested (10^−10–10^−5 M) were incubated in triplicate with 0.8 nM [^35S]GTPγS in assay buffer (50 mM Tris-HCl, pH = 7.4, 1 mM EGTA, 3 mM MgCl2, 100 mM NaCl, 30 µM GDP) and 8-OH-DPAT (final concentration 1.4 × 10^−7 M) in the final assay volume of 250 µL. Hippocampal homogenates (15 μg/mL) were added to each tube as the 5-HT1A receptor source. […] Non-specific binding was determined with 10 µM of unlabeled GTPγS. […] Next, 96-well Unifilter® Plates (Perkin Elmer, Waltham, MA, USA) were presoaked for 1 h with 50 mM Tris-HCl (pH = 7.4) before harvesting. The reaction was terminated by vacuum filtration onto filter plates with the FilterMate Harvester® (Perkin Elmer, Waltham, MA, USA). The samples were then rapidly washed with 2 mL of 50 mM Tris-HCl (pH = 7.4) buffer. Filter plates were dried for 2 h at 50 °C. After drying, 45 µL of EcoScint-20 scintillant (Perkin Elmer) was added to every well. Radioactivity was counted in a Trilux MicroBeta^2 counter (Perkin Elmer). Data were analyzed with GraphPad Prism 5.0 software (GraphPad Software, San Diego, CA, USA, www.graphpad.com). Curves were fitted with a one-site non-linear regression model. Efficacy (Emax) and half maximal inhibitory concentration (IC50) were calculated from the Cheng–Prusoff equation and expressed as means ± SEM.
(In general: Binding of GTPγS marks nucleotide exchange on a G protein.)

The next data set deals with T2, 5-HT2A receptor (Rattus norvegicus, UniProt P14842).
T2 construct: from tissue; host or cells: rat frontal cortex (male SD), membrane homogenate
T2 sequence (P14842 whole entry): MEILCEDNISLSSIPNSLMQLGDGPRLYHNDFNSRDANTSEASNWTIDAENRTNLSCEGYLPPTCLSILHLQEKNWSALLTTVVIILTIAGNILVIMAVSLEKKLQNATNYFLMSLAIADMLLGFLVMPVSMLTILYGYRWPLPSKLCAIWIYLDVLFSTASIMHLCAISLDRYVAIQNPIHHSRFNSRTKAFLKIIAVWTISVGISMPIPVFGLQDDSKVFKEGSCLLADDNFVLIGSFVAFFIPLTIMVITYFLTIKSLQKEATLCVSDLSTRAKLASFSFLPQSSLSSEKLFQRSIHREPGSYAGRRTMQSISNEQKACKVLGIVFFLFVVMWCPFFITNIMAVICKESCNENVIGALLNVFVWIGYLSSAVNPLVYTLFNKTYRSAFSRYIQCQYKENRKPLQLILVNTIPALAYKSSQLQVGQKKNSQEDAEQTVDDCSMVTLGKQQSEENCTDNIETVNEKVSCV
Description: 5-HT2A competition binding assay, [3H]ketanserin, frontal cortex homogenates. The following applies: [3H]ketanserin 1 nM. Here is the method:
Male SD rats were decapitated and their brains removed and placed on ice. Frontal cortices were homogenized with a glass homogenizer in 30 vol ice-cold homogenization buffer (50 mM Tris-HCl. 1 mM EDTA. 5 mM MgCl2. pH 7.4). Next, the homogenate was centrifuged at 20,000× g for 15 min at 4 °C. […] The suspension was again centrifuged at 20,000× g for 15 min at 4 °C. The pellet was resuspended in 10 vol. 50 mM Tris-HCl (pH 7.4) and the centrifugation step was repeated. The final pellet was suspended in 10 vol 50 mM Tris-HCl (pH 7.4) and stored at −80 °C.
Non-specific binding was determined in the presence of 10 μM mianserin. After incubation, the reaction mixture was deposited onto UniFilter-96 GF/B plates with the aid of a FilterMate-96 Harvester. Filter plates were presoaked beforehand with 0.4% PEI for 1 h. Next, each filter well was washed with 1.75 mL of 50 mM Tris-HCl (pH 7.4) and left to dry on a heating block set to 50 °C for 2 h. Then 45 µL of Microscint-20 scintillation fluid was added to each filter well and left to equilibrate overnight. Filter-bound radioactivity was counted in a MicroBeta^2 Microplate Counter. Binding curves were fitted with one site non-linear regression. Affinity was presented as the inhibitory constant (pKi ± SEM and Ki ± SEM) from two or three separate experiments.

[1] abbreviates: read-out: Ki (nM ± SEM) (converted).
[2] abbreviates: read-out: pKi (M ± SEM) (converted).

The structures appear in SMILES notation. Like-named read-outs stand apart in the source and are kept apart here.

The IC50 is the concentration that inhibits the measured activity by half. By EC50 is commonly meant the concentration at which the effect is half-maximal. Low values mean higher potency in that assay, high ones lower potency in that assay. What is called melting point is the temperature, or range, at which the solid turns liquid. In turn, `CC(=O)c1c(C)cc2oc(=O)cc(C)c2c1OCCN1CCN(c2cccc(F)c2)CC1` [Compound 4e, 6-acetyl-5-(2-(4-(3-fluorophenyl)piperazin-1-yl)ethoxy)-4,7-dimethyl-2H-chromen-2-one] showed a melting point of 135 to 136 °C. Besides, on 5-HT1A receptor, it took 0.501 µM to reach half-maximal inhibition (IC50) and the EC50 was determined as 527 ± 191 nM. Also, the Ki at 5-HT2A receptor (setting [1]) is 3860 ± 810 nM.
Taken in the same sequence, the figures for `CC(=O)c1c(C)cc2oc(=O)cc(C)c2c1OCCN1CCN(c2ccccc2Br)CC1` [Compound 4f, 6-acetyl-5-(2-(4-(2-bromophenyl)piperazin-1-yl)ethoxy)-4,7-dimethyl-2H-chromen-2-one] were 83 to 85 °C, 8.32 µM, 8320 ± 1500 nM and 10600 nM.
As to `CC(=O)c1c(C)cc2oc(=O)cc(C)c2c1OCCN1CCN(c2cccc(Br)c2)CC1` [Compound 4g], the melting point fell in the range of 127 to 128 °C. On 5-HT1A receptor, this molecule had an IC50 of 12.6 µM and an EC50 of 11100 nM. In addition, the Ki at 5-HT2A receptor (setting [1]) is 3990 ± 745 nM.
As to `CC(=O)c1c(C)cc2oc(=O)cc(C)c2c1OCCN1CCN(c2cccc(Cl)c2Cl)CC1` [Compound 4i, 6-acetyl-5-(2-(4-(2,3-dichlorophenyl)piperazin-1-yl)ethoxy)-4,7-dimethyl-2H-chromen-2-one], the melting point lay within 162 to 163 °C. On 5-HT1A receptor, this molecule had a half-maximal inhibitory concentration (IC50) of 3.16 µM and an EC50 of 3100 ± 148 nM. Also, the Ki at 5-HT2A receptor (setting [1]) was 1640 ± 344 nM.
For `CC(=O)c1c(C)cc2oc(=O)cc(C)c2c1OCCN1CCN(c2ccccc2C#N)CC1` [Compound 4j, 6-acetyl-5-(2-(4-(2-cyanophenyl)piperazin-1-yl)ethoxy)-4,7-dimethyl-2H-chromen-2-one] the same measures were 153 to 155 °C, 0.501 µM, 538 ± 105 nM and 2430 ± 374 nM.
Molecule `COc1ccccc1N1CCN(CCCCCOc2ccc3c(C)cc(=O)oc3c2C(C)=O)CC1` [Compound 5a, 8-acetyl-7-(5-[4-(2-methoxyphenyl)piperazin-1-yl]penthoxy)-4-methylchromen-2-one] gave a melting point of 126 to 128 °C. Besides, at 5-HT1A receptor, 0.0316 µM corresponded to half-maximal inhibition (IC50) and a half-maximal effect (EC50) was put at 30.5 ± 2.56 nM. Moreover, the Ki at 5-HT2A receptor (setting [1]) was 343 ± 86 nM.
For `CC(=O)c1c(OCCCCCN2CCN(c3ccccc3F)CC2)ccc2c(C)cc(=O)oc12` [Compound 5b, 8-acetyl-7-(5-[4-(2-fluorophenyl)piperazin-1-yl]penthoxy)-4-methylchromen-2-one] the same measures were 95 to 97 °C, 0.0794 µM, 82 ± 13.4 nM and 122 ± 43 nM.
For `CC(=O)c1c(OCCCCCN2CCN(c3cc(C)ccc3C)CC2)ccc2c(C)cc(=O)oc12` [Compound 5d, 8-acetyl-7-(5-[4-(2,5-dimethylphenyl)piperazin-1-yl]penthoxy)-4-methylchromen-2-one] the same measures were 92 to 94 °C, 12.6 µM, 12900 nM and 1500 ± 279 nM.
For `CC(=O)c1c(OCCCCCN2CCN(c3cccc(F)c3)CC2)ccc2c(C)cc(=O)oc12` [Compound 5e, 8-acetyl-7-(5-[4-(3-fluorophenyl)piperazin-1-yl]penthoxy)-4-methylchromen-2-one] the same measures were 117 to 119 °C, 31.6 µM, 33900 nM and 2110 ± 420 nM.
Turning to `CC(=O)c1c(OCCCCCN2CCN(c3ccccc3Br)CC2)ccc2c(C)cc(=O)oc12` [Compound 5f, 8-acetyl-7-(5-[4-(2-bromophenyl)piperazin-1-yl]penthoxy)-4-methylchromen-2-one], the melting point lay in the range of 102 to 103 °C. On 5-HT1A receptor, this molecule had an IC50 of 31.6 µM and an EC50 of 27400 nM. Moreover, the Ki on 5-HT2A receptor (setting [1]) is 108 ± 24 nM. At 5-HT2A receptor (setting [2]), the Ki was 110 nM.
In the case of `CC(=O)c1c(OCCCCCN2CCN(c3cccc(Br)c3)CC2)ccc2c(C)cc(=O)oc12` [Compound 5g, 8-acetyl-7-(5-[4-(3-bromohenyl)piperazin-1-yl]penthoxy)-4-methylchromen-2-one], the melting point lay within 119 to 121 °C. Besides, on 5-HT1A receptor, it took 25.1 µM to reach half-maximal inhibition (IC50) and a half-maximal effect (EC50) was put at 21500 nM. The Ki at 5-HT2A receptor (setting [1]) was 81 ± 19 nM.
In turn, `CC(=O)c1c(OCCCCCN2CCN(c3cc(C)cc(C)c3)CC2)ccc2c(C)cc(=O)oc12` [Compound 5h, 8-acetyl-7-(5-[4-(3,5-dimethylphenyl)piperazin-1-yl]penthoxy)-4-methylchromen-2-one] came in with a melting point of 113 to 115 °C. Further, on 5-HT1A receptor, half-maximal inhibition (IC50) required 31.6 µM and the EC50 was found to be 32900 nM. Besides, at 5-HT2A receptor (setting [1]), the Ki was 291 ± 57 nM.
The molecule `CC(=O)c1c(OCCCCCN2CCN(c3cccc(Cl)c3Cl)CC2)ccc2c(C)cc(=O)oc12` [Compound 5i, 8-acetyl-7-(5-[4-(2,3-dichlorophenyl)piperazin-1-yl]penthoxy)-4-methylchromen-2-one] returned a melting point of 137 to 139 °C. In addition, at 5-HT1A receptor, half-maximal inhibition (IC50) was put at 63.1 µM and the EC50 came out at 55900 nM. For the same molecule, the Ki on 5-HT2A receptor (setting [1]) was 51 ± 8.3 nM. For the same molecule, at 5-HT2A receptor (setting [2]), the Ki is 63.1 nM.
`CC(=O)c1c(OCCCCCN2CCN(c3ccccc3C#N)CC2)ccc2c(C)cc(=O)oc12` [Compound 5j, 8-acetyl-7-(5-[4-(2-cyanophenyl)piperazin-1-yl]penthoxy)-4-methylchromen-2-one]: the melting point lay in the range of 59 to 61 °C. In addition, on 5-HT1A receptor, the IC50 was 15.8 µM and a half-maximal response (EC50) required 13900 nM. The Ki on 5-HT2A receptor (setting [1]) was 2550 ± 765 nM.
For `COc1ccccc1N1CCN(CCOc2ccc3c(C)cc(=O)oc3c2C(C)=O)CC1` [Compound 6a, 8-acetyl-7-(2-[4-(2-methoxyphenyl)piperazin-1-yl]ethoxy)-4-methylchromen-2-one] the same measures were 157 to 159 °C, 3.16 µM, 2740 ± 626 nM and 752 ± 171 nM.
For `CC(=O)c1c(OCCN2CCN(c3ccccc3F)CC2)ccc2c(C)cc(=O)oc12` [Compound 6b, 8-acetyl-7-(2-[4-(2-fluorophenyl)piperazin-1-yl]ethoxy)-4-methylchromen-2-one] the same measures were 137 to 139 °C, 50.1 µM, 45300 nM and 1510 ± 344 nM.
In the case of `COc1cccc(N2CCN(CCOc3ccc4c(C)cc(=O)oc4c3C(C)=O)CC2)c1` [Compound 6c, 8-acetyl-7-(2-[4-(3-methoxyphenyl)piperazin-1-yl]ethoxy)-4-methylchromen-2-one], the melting point was in the range of 122 to 124 °C. On 5-HT1A receptor, this molecule had an IC50 of 50.1 µM and an EC50 of 47200 nM. Also, at 5-HT2A receptor (setting [1]), the Ki was 920 ± 160 nM. The Ki on 5-HT2A receptor (setting [2]) was 933 nM.

The record behind these values is paper PMC7996328, “Design, Synthesis, and Biological Evaluation of a Series of 5- and 7-Hydroxycoumarin Derivatives as 5-HT1A Serotonin Receptor Antagonists” (Pharmaceuticals, 2021).
